By inhibition is commonly meant the relative decrease from the control value, in per cent. Read a high inhibition as strong suppression. The term IC50 denotes the concentration at which inhibition is half-maximal. A lower IC50 goes with higher potency.

These results are taken from patent US5849779A, “Pyrazole derivatives and their pharmaceutical use” (Japan Energy Corporation, priority 1996, dated 1998).

For one data set, the system named is BALB/c 3T3 cells. In words: Inhibiting effect on PDGF-stimulated cell growth (3H-thymidine uptake). The data set is classed as cell-based. As to conditions: Mus musculus, BALB/c3T3, PDGF-AA or PDGF-BB 10 ng/mL, 16 h; for inhibition at 3 µM: concentration 3 μM. How it is done:
Effect on PDGF-stimulated cell growth was estimated by the following method using fibroblasts, growth of which is induced by PDGF in the same manner of smooth muscle cells to verify inhibitory activity of the pyrazole derivative of the present invention against PDGF-stimulated cell growth.
BALB/c 3T3 cells seeded on a 96-well plate (3-5×10^3 cell/well) were incubated in a high glucose Dulbecco's modified Eagle's medium (DME medium) containing 10% fetal bovine sera (FBS) for 2-3 days until confluent. The medium was replaced by high glucose DME medium containing 0.5% platelet poor plasma (PPP) followed by incubation for further 24 h.
The medium was replaced by high glucose DME medium containing PDGF-AA or PDGF-BB (10 ng/mL) to induce PDGF-stimulated cell growth, and a DMSO solution of a test sample was added followed by incubation for 16 h. Then, ^3 H-thymidine (1 mCi/ml) was 20-fold diluted by Ca^2+ and Mg^2+ free phosphate-bufferized saline, and 0.02 mL of the resulted solution was added followed by incubation for further 4 h. Final concentration of DMSO was not more than 0.25%.
After ^3 H-thymidine in the medium was washed out, cells were treated with trypsin/EDTA and collected using a cell-harvester. Amount of ^3 H-thymidine taken in the cells was measured by a liquid scintillation counter. […] Growth inhibition was estimated by difference of the amount of ^3 H-thymidine taken between the test incubation and the reference incubation.

Data set [1] concerns Human coronary artery smooth muscle cells. In words: Inhibiting effect on PDGF-stimulated smooth muscle cell growth (3H-thymidine method). The data set is classed as cell-based. As to conditions: PDGF-BB 20 ng/mL, 16 h. The method, then: Effect on PDGF-stimulated smooth muscle cell growth was estimated by the following method to verify inhibitory activity of the pyrazole derivative of the present invention against smooth muscle cell growth. (Test method)
Human coronary artery smooth muscle cells seeded on a 96-well plate (2×10^4 cell/well) were incubated in a complete medium consisting of a basal medium (SmGM-2: Iwaki Glass Co., Japan), FBS (5%), EGF (0.5 ng/mL), insulin (0.005 mg/mL), and basic-FGF (2 ng/mL) for 24 h until confluent. The medium was replaced by the basal medium followed by incubation for further 24 h to lead cells to GO stage.
The medium was replaced by a medium consisting of the basal medium and PDGF-BB (20 ng/mL) to induce PDGF-stimulated cell growth, and a DMSO solution of a test sample was added followed by incubation for 16 h. Then, inhibition of cell growth was estimated by a ^3 H-thymidine method as described in Example 22.
Tranilast was used as positive reference.

The subject of data set [2] is smooth muscle cell. As to conditions: Atherosclerosis, 107, 179-185 (1994); cited from earlier work.
The subject of another data set is re-narrowing. As to conditions: Rinsho Iyaku, 12, 65-85 (1996); cited from earlier work.
Data set [3] concerns smooth muscle cell. As to conditions: as reported in literature; cited from earlier work.
For a further data set, the system named is hepatic function. As to conditions: clinical use; cited from earlier work.

Regarding `CCCCn1cc(C(=O)OCC)c(NC(=O)Nc2ccccc2)n1` [Example 2, N-phenyl-N'-(1-butyl-4-ethoxycarbonylpyrazol-3-yl)urea], 3 µM produced 81.9% inhibition in the data set with BALB/c 3T3 cells. In data set [1], this compound came in with an IC50 of 3100 nM.

As to `CCOC(=O)c1cnn(-c2ccccc2)c1NC(=O)Nc1ccccc1` [Example 6, N-phenyl-N'-(4-ethoxycarbonyl-1-phenylpyrazol-5-yl)urea], in the data set with BALB/c 3T3 cells, the inhibition at 3 µM was 49.9%.

In turn, `CCCN(CCC)C(=O)Nc1nn(Cc2ccccc2)cc1C(=O)OCC` [Example 15, N, N-dipropyl-N'-(1-benzyl-4-ethoxycarbonylpyrazol-3-yl)urea] came in with an IC50 in data set [1] of 2200 nM.

In turn, `CCOC(=O)c1cn(Cc2ccccc2)nc1N(Cc1ccccc1)C(=O)Nc1ccccc1` [Example 18, N-phenyl-N'-benzyl-N'-(1-benzyl-4-ethoxycarbonylpyrazol-3-yl)urea] had an IC50 in data set [1] of 3000 nM.

As to `CCOC(=O)c1cn(Cc2ccccc2)nc1NC(=O)N(c1ccccc1)c1ccccc1` [Example 16, N, N-diphenyl-N'-(1-benzyl-4-ethoxycarbonylpyrazol-3-yl)urea], in data set [1], the IC50 stood at 1100 nM.

For the compound `CCCNC(=O)Nc1nn(Cc2ccccc2)cc1C(=O)OCC` [Example 1, N-propyl-N'-(1-benzyl-4-ethoxycarbonylpyrazol-3-yl)urea], at 3 µM the inhibition with BALB/c 3T3 cells was 84.5%. In data set [1], the midpoint of inhibition, the IC50, lay at 2300 nM.

On to `CCCNC(=O)Nc1c(C(=O)OCC)cnn1-c1ccccc1` [Example 7, N-propyl-N'-(4-ethoxycarbonyl-1-phenylpyrazol-5-yl)urea], for which the inhibition at 3 µM with BALB/c 3T3 cells came to 36.4%.

The compound `CCOC(=O)c1cn(Cc2ccccc2)nc1NC(=O)NC(C)C` [Example 8, N-isopropyl-N'-(1-benzyl-4-ethoxycarbonylpyrazol-3-yl)urea] displayed an IC50 in data set [1] of 1300 nM.

In the data set with BALB/c 3T3 cells, `CCCCn1cc(C(=O)OCC)c(NC(=S)Nc2ccccc2)n1` [Example 3, N-phenyl-N'-(1-butyl-4-ethoxycarbonylpyrazol-3-yl)thiourea] yielded an inhibition at 3 µM of 89.5%. In data set [1], the IC50 came out at 1500 nM.

Consider `COc1ccc(/C=C/C(=O)Nc2ccccc2C(=O)O)cc1OC` [tranilast, N-(3,4-dimethoxycinnamoyl) anthranilic acid, reference compound], for which the “inhibition of growth of smooth muscle cell” value with smooth muscle cell [2] is “inhibit growth of smooth muscle cell”. Further, the “prevention of clinical re-narrowing after percutaneous transluminal angioplasty” value with re-narrowing is “prevent clinical re-narrowing after percutaneous transluminal angioplasty”. The “inhibition of PDGF-stimulated smooth muscle cell growth” value with smooth muscle cell [3] is recorded as “reported to inhibit PDGF-stimulated smooth muscle cell growth”. In the data set with BALB/c 3T3 cells (concentration 10 μM), the inhibition at 10 µM was determined as 19.2%. Moreover, the inhibition at 30 µM in the data set on BALB/c 3T3 cells (concentration 30 μM) amounted to 57.1%. Further, in the data set on BALB/c 3T3 cells (concentration 100 μM), 100 µM produced 92.5% inhibition. Besides, the “side effects on hepatic function” value with hepatic function was “often causes side effects on hepatic function”. Besides, in data set [1], 5000 nM corresponded to half-maximal inhibition (IC50).
